From US6403343B2, “Method of producing a taxane-type diterpene and a method of obtaining cultured cells which produce the taxane-type dilterpene at a high rate” (Mitsui Chemicals, Inc., priority 1993, dated 2002)

Test system: cultured cells of Taxus baccata LINN
Test: Growth rate and taxane yield, 21-day shake culture of Taxus baccata cells with heavy metal compound, amine, antiethylene agent or Ethrel added
Assay type: cell-based
Experimental: (§1) One gram (fresh weight) of the callus was inoculated to an Erlenmeyer flask containing 20 ml of liquid Woody Plant Medium to which the above-mentioned component was added to give the same concentration and shake culture was carried out with a rotary shaker (amplification of 25 mm, 100 rpm) and the callus was subcultured in every 21 days to accelerate the growth rate thereof.
Then shake culture was carried out at 25° C. for 21 days.
(§2) After completing the culture, cultured cells of Taxus baccata LINN were harvested by filtration and lyophilized, then the dry weight was measured to obtain the growth rate thereof. Taxane-type diterpenes were extracted from the dried callus with methanol and the like, and they were determined by comparing with standard taxol, cephalomannine, and baccatin III using high performance liquid chromatography to measure the yields of the taxane-type diterpenes.
as §1
One gram (fresh weight) of the cultured cells thus obtained was inoculated to an Erlenmeyer flask containing 20 ml of liquid Woody Plant Medium to which the above-mentioned component had been added to give the same concentration, then spermidine was added to it as amine to give the final concentration of 10^−9M-1M. Then shake culture was carried out at 25° C. for 21 days.
as §2, with “cells” for “callus”, “diterpene.” for “diterpenes.”
as §1, with “component had been” for “component was”
One gram (fresh weight) of the cultured cells thus obtained was inoculated to an Erlenmeyer flask containing 20 ml of liquid Woody Plant Medium to which the above-mentioned component had been added to give the same concentration, and shake culture was carried out at 25° C. for 14 days.

[1] = 2×10^−6 M added 5 times at 4 days' intervals from day 0, total 10^−5 M
[2] = 10^−1 M added at start, 21 days
[3] = 10^−2 M added at start, 21 days
[4] = 10^−3 M added at start, 21 days
[5] = 10^−4 M added at start, 21 days
[6] = 10^−5 M added at start, 21 days
[7] = 10^−5 M added on 7th day, 14 more days
[8] = 10^−5 M added on 14th day, 7 more days
[9] = 10^−5 M added on 18th day, 3 more days
[10] = 10^−5 M at start + methyl jasmonate 10^−4 M on 14th day
[11] = 10^−5 M at start + methyl jasmonate 10^−4 M on 14th day, oxygen 10% in the gas phase
[12] = 10^−5 M at start, oxygen 10% in the gas phase
[13] = 10^−6 M added at start, 21 days
[14] = 10^−7 M added at start, 21 days
[15] = 10^−8 M added at start, 21 days
[16] = 10^−9 M added at start, 21 days

NCCCCNCCCN [spermidine]
growth rate (1 M added at start, 21 days): 1.4 times
total yield of taxane (1 M added at start, 21 days): 0.21 mg/L
yield of baccatin III (1 M added at start, 21 days): 0.10 mg/L
yield of cephalomannine (1 M added at start, 21 days): 0.03 mg/L
yield of taxol (1 M added at start, 21 days): 0.08 mg/L
growth rate [1]: 2.9 times
total yield of taxane [1]: 27.74 mg/L
yield of baccatin III [1]: 6.30 mg/L
yield of cephalomannine [1]: 6.01 mg/L
yield of taxol [1]: 15.43 mg/L
growth rate [2]: 2.1 times
total yield of taxane [2]: 3.35 mg/L
yield of baccatin III [2]: 0.41 mg/L
yield of cephalomannine [2]: 1.00 mg/L
yield of taxol [2]: 1.94 mg/L
growth rate [3]: 2.0 times
total yield of taxane [3]: 7.13 mg/L
yield of baccatin III [3]: 0.82 mg/L
yield of cephalomannine [3]: 2.42 mg/L
yield of taxol [3]: 3.89 mg/L
growth rate [4]: 2.9 times
total yield of taxane [4]: 17.31 mg/L
yield of baccatin III [4]: 2.63 mg/L
yield of cephalomannine [4]: 4.59 mg/L
yield of taxol [4]: 10.09 mg/L
growth rate [5]: 3.1 times
total yield of taxane [5]: 22.23 mg/L
yield of baccatin III [5]: 2.78 mg/L
yield of cephalomannine [5]: 6.49 mg/L
yield of taxol [5]: 12.96 mg/L
growth rate [6]: 3.1 times
total yield of taxane [6]: 33.17 mg/L
yield of baccatin III [6]: 6.59 mg/L
yield of cephalomannine [6]: 7.30 mg/L
yield of taxol [6]: 19.28 mg/L
growth rate [7]: 2.9 times
total yield of taxane [7]: 27.45 mg/L
yield of baccatin III [7]: 6.08 mg/L
yield of cephalomannine [7]: 6.13 mg/L
yield of taxol [7]: 15.24 mg/L
growth rate [8]: 2.9 times
total yield of taxane [8]: 20.98 mg/L
yield of baccatin III [8]: 5.46 mg/L
yield of cephalomannine [8]: 5.32 mg/L
yield of taxol [8]: 10.20 mg/L
growth rate [9]: 3.0 times
total yield of taxane [9]: 11.48 mg/L
yield of baccatin III [9]: 2.95 mg/L
yield of cephalomannine [9]: 2.90 mg/L
yield of taxol [9]: 5.63 mg/L
growth rate [10]: 2.6 times
total yield of taxane [10]: 50.25 mg/L
yield of baccatin III [10]: 18.96 mg/L
yield of cephalomannine [10]: 9.74 mg/L
yield of taxol [10]: 21.55 mg/L
growth rate [11]: 2.6 times
total yield of taxane [11]: 57.89 mg/L
yield of baccatin III [11]: 19.65 mg/L
yield of cephalomannine [11]: 8.57 mg/L
yield of taxol [11]: 29.67 mg/L
growth rate [12]: 2.7 times
total yield of taxane [12]: 40.29 mg/L
yield of baccatin III [12]: 13.43 mg/L
yield of cephalomannine [12]: 7.81 mg/L
yield of taxol [12]: 19.05 mg/L
growth rate [13]: 3.2 times
total yield of taxane [13]: 23.16 mg/L
yield of baccatin III [13]: 3.61 mg/L
yield of cephalomannine [13]: 6.04 mg/L
yield of taxol [13]: 13.51 mg/L
growth rate [14]: 3.1 times
total yield of taxane [14]: 18.89 mg/L
yield of baccatin III [14]: 1.34 mg/L
yield of cephalomannine [14]: 5.79 mg/L
yield of taxol [14]: 11.76 mg/L
growth rate [15]: 3.1 times
total yield of taxane [15]: 4.39 mg/L
yield of baccatin III [15]: 0.66 mg/L
yield of cephalomannine [15]: 1.74 mg/L
yield of taxol [15]: 1.99 mg/L
growth rate [16]: 2.9 times
total yield of taxane [16]: 1.21 mg/L
yield of baccatin III [16]: 0.31 mg/L
yield of cephalomannine [16]: 0.58 mg/L
yield of taxol [16]: 0.32 mg/L
